Measurements reported in ChEMBL document CHEMBL4177632 (Bioorg Med Chem, 2017).
pIC50, pKi: −log10 of the molar value.

Legend:
[1] = target: Aldo-keto reductase family 1 member A1 (Rattus norvegicus, UniProt P51635); experiment: Inhibition of ALR1 in Wistar rat kidney assessed as reduction in NADPH consumption preincubated for 1 min followed by substrate addition measured after 4 mins by spectrophotometric analysis
[2] = target: T1, Aldo-keto reductase family 1 member B1 (Rattus norvegicus, UniProt P07943); experiment: Inhibition of ALR2 in Wistar rat eye lens assessed as reduction in NADPH consumption preincubated for 1 min followed by D,L-glyceraldehyde addition measured after 4 mins by spectrophotometric analysis
[3] = target: T2, Aldo-keto reductase family 1 member B1 (Homo sapiens, UniProt P15121); experiment: Uncompetitive inhibition of recombinant human AKR1B1 using D,L-glyceraldehyde as substrate
[4] = target: Aldo-keto reductase family 1 member B10 (Homo sapiens, UniProt O60218); experiment: Inhibition of recombinant human AKR1B10
Chain of Aldo-keto reductase family 1 member B10 (O60218 whole entry): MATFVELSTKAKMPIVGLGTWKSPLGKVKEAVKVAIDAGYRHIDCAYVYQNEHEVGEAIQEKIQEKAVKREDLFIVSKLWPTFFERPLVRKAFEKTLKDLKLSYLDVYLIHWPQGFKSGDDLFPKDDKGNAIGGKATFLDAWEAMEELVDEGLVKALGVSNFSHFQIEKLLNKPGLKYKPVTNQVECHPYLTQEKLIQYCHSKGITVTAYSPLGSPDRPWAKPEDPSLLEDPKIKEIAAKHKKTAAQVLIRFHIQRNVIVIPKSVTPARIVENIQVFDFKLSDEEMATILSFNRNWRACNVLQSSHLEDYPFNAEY

[5] = target: T1, Aldo-keto reductase family 1 member B1; experiment: Uncompetitive inhibition of ALR2 in Wistar rat eye lens assessed as reduction in NADPH consumption preincubated for 1 min followed by D,L-glyceraldehyde addition measured after 4 mins by spectrophotometric analysis
[6] = target: T2, Aldo-keto reductase family 1 member B1; experiment: Inhibition of recombinant human AKR1B1 using D,L-glyceraldehyde as substrate

Chain of Aldo-keto reductase family 1 member A1 (P51635 whole entry, looked up): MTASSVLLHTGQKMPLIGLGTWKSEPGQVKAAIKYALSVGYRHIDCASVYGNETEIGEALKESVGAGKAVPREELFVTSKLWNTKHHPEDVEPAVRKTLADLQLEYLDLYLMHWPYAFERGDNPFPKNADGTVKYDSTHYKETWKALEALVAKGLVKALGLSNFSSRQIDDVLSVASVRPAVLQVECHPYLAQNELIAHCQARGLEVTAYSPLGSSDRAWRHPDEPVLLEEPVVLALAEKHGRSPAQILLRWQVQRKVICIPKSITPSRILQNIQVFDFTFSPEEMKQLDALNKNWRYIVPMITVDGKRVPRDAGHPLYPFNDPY

| Structure (SMILES) | pIC50 [1] | pIC50 [2] | pKi [3] | pIC50 [4] | pKi [5] | pIC50 [6] |
| --- | --- | --- | --- | --- | --- | --- |
| Cc1c(C=O)c2ccccc2n1CC(=O)O | 4.93 | 6.47 | – | – | – | – |
| CC(=O)N1CCc2c(c3ccccc3n2CC(=O)O)C1 | 4.66 | 7.69 | – | – | – | – |
| CC(C)N1CCc2c(c3ccccc3n2CC(=O)O)C1 | < 4.00 | 4.47 | – | – | – | – |
| CCOC(=O)N1CCc2c(c3cc(OC)ccc3n2CC(=O)O)C1 | 5.00 | 7.90 | 7.18 | 5.03 | 7.77 | 7.08 |
| CC(=O)c1c(C)n(CC(=O)O)c2ccccc12 | 4.95 | 6.77 | – | – | – | – |
| O=C(O)Cn1c2c(c3ccccc31)CN(C(=O)C1CC1)CC2 | 5.12 | 7.24 | – | – | – | – |
| CCOC(=O)N1CCc2c(c3cc(C(=O)O)ccc3n2CC(=O)O)C1 | 5.32 | 7.90 | – | – | – | – |
